Assay results taken from article PMC10165273, “Itch receptor MRGPRX4 interacts with the receptor activity–modifying proteins” (The Journal of Biological Chemistry, 2023).
Where “and” joins values, the source holds several entries; their conditions need not be identical. Equal entries are not always repeated. Where two headings read alike, the source gives them in different places.

Experiments:
[1] = target: T1, MRGPRX4 (Homo sapiens, UniProt Q96LA9); experiment: BRET2 β-arrestin1 recruitment to MRGPRX4; format: cell-based; conditions: 100 μM agonist (Fig. 5A)
T1 construct: expressed in transfected cells; host or cells: HEK293T
Description: The method for homogenous transfection of β-Arrestin and BRET^2 assay of β-Arrestin recruitment has been described previously ([51]). […] BRET^2 measurements were taken on the BioTek Synergy NEO2 microplate reader.
For MRGPRX4 DNA titration assays, HEK293T cells were cotransfected with either β-Arrestin1 or β-Arrestin2 with increasing amounts of MRGPRX4 (0.5, 1, or 2 pg/cell).
The BRET ratio for each sample was determined by calculating the ratio of the light intensity emitted by the GFP10 (515 nm) (acceptor) over the light intensity emitted by the RLuc3 (395 nm) (donor). Net BRET^2 was determined by subtracting the basal BRET^2 (β-arrestin-RLuc3 only) signal from the BRET^2 signals. All BRET values were normalized to the MRGPRX4-only condition.

[2] = target: T2, MRGPRX4 + RAMP3 (Homo sapiens, UniProt Q96LA9); experiment: IP1 accumulation, MRGPRX4 coexpressed with RAMP3; format: cell-based; parameters: key to IP1 Basal / response to agonist, X4:ramp3.I:0.25 / response to agonist, X4:ramp3.I:0.5 / response to agonist, X4:ramp3.I:1: % IP1; unstimulated mock = 0%, fully stimulated MRGPRX4 = 100%; conditions: for activation at 100 µM / activation at 20 µM / activation at 4 µM / activation at 0.8 µM / activation at […] / activation at 0.032 µM: 2 h, Fig S3f, read-out: IP1 accumulation; for activation at 100 µM: log [DCA] (M) -4; for activation at 20 µM: log [DCA] (M) -4.69897; for activation at 4 µM: log [DCA] (M) -5.39794; for activation at 0.8 µM: log [DCA] (M) -6.09691; for activation at […]: log [DCA] (M) -6.79588; for activation at 0.032 µM: log [DCA] (M) -7.49485
T2 construct: expressed in transfected cells; host or cells: HEK293T
Description: HEK293T cells were transfected with 1 pg/cell of MRGPRX4 DNA, and the amount of DNA was kept constant at 2 pg/cell with pcDNA3.1(+) empty vector, unless otherwise specified. Twenty four hours after transfection, IP1 assay was performed as previously described ([51]). When applicable, cells were treated with 1 μM YM254890 (YM) or different concentrations of U73122 for 1 h prior to addition of agonist or buffer. After incubation for 2 h, HTRF reagents and IP1 calibration standards were added and incubated for 2 h in the dark at room temperature. Time-resolved fluorescence signals were read on the BioTek Synergy NEO-TRF Hybrid multi-mode reader (BioTek Instruments). All data were carried out in three independent experiments with three technical replicate each.
For RAMP DNA titration assay, HEK293T cells were cotransfected with a constant amount of 1 pg/cell of FLAG-MRGPRX4-GFP10-1D4 to which a serial dilution of 1, 0.75, 0.5, 0.25, or 0 pg/cell of each HA-RAMP-OLLAS was added. For a homogenous transfection of MRGPRX4, a master mix of MRGPRX4 DNA was made prior to addition of the RAMP DNA. […]
Data reduction, standard calibration, and transformation of HTRF data were performed as previously described ([51]). Normalized IP1 values were calculated relative to the unstimulated mock-transfected cells (set to 0%) and fully stimulated MRGPRX4 (alone if applicable) (set to 100%).

[3] = MRGPRX4 + RAMP3 0.25 pg (Fig. S3), normalized per agonist
[4] = MRGPRX4 + RAMP3 0.5 pg (Fig. S3), normalized per agonist
[5] = MRGPRX4 + RAMP3 1 pg (Fig. S3), normalized per agonist

T2 sequence (Q96LA9 whole entry): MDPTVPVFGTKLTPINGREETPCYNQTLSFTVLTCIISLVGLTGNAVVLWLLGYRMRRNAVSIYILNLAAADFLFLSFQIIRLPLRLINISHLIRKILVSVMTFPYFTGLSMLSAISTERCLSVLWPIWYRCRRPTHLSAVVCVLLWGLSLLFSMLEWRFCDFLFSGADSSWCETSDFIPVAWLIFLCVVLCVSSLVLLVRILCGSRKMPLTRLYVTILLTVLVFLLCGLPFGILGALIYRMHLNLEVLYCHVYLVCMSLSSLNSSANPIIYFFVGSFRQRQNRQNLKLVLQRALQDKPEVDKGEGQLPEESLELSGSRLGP
T1 sequence (Q96LA9 whole entry): as above

In the case of `C[C@H](CCC(=O)O)[C@H]1CC[C@H]2[C@@H]3CC[C@@H]4C[C@H](O)CC[C@]4(C)[C@H]3C[C@H](O)[C@]12C` [DCA, deoxycholic acid], the “β-arrestin1 recruitment to MRGPRX4” value [1] is reported as “did not recruit β-arrestin1”, the activation at 100 µM ([2]; ratio MRGPRX4:RAMP3 1:0.25) is reported as 92.7% and the activation at 20 µM ([2]; ratio MRGPRX4:RAMP3 1:0.25) is reported as 69.5%. The activation at 4 µM ([2]; ratio MRGPRX4:RAMP3 1:0.25) was 48.4%, the activation at 0.8 µM ([2]; ratio MRGPRX4:RAMP3 1:0.25) was 35.7% and the activation at […] ([2]; ratio MRGPRX4:RAMP3 1:0.25) was 34.1%. It also gave an activation at 0.032 µM ([2]; ratio MRGPRX4:RAMP3 1:0.25) of 31.5%, an activation at 100 µM ([2]; ratio MRGPRX4:RAMP3 1:0.5) of 90.4% and an activation at 20 µM ([2]; ratio MRGPRX4:RAMP3 1:0.5) of 53.8%. The activation at 4 µM ([2]; ratio MRGPRX4:RAMP3 1:0.5) was 33.6%, the activation at 0.8 µM ([2]; ratio MRGPRX4:RAMP3 1:0.5) was 22% and the activation at […] ([2]; ratio MRGPRX4:RAMP3 1:0.5) was 21.2%. The activation at 0.032 µM ([2]; ratio MRGPRX4:RAMP3 1:0.5) was 21.7%, the activation at 100 µM ([2]; ratio MRGPRX4:RAMP3 1:1) was 97.9% and the activation at 20 µM ([2]; ratio MRGPRX4:RAMP3 1:1) was 49.2%. It also gave an activation at 4 µM ([2]; ratio MRGPRX4:RAMP3 1:1) of 28.3%, an activation at 0.8 µM ([2]; ratio MRGPRX4:RAMP3 1:1) of 19.5% and an activation at […] ([2]; ratio MRGPRX4:RAMP3 1:1) of 19.6%. The activation at 0.032 µM ([2]; ratio MRGPRX4:RAMP3 1:1) was 18.9%, the activation at 20 µM ([2]; ratio MRGPRX4:RAMP3 1:2) was 48.1% and the activation at 4 µM ([2]; ratio MRGPRX4:RAMP3 1:2) was 23.1%. The activation at […] ([2]; ratio MRGPRX4:RAMP3 1:2) was 16.8%, the activation at 0.032 µM ([2]; ratio MRGPRX4:RAMP3 1:2) was 15.3% and the Emax ([2]; Figure 4a bottom, DNA ratio MRGPRX4:RAMP3 1:0.75, MRGPRX4 alone = 100, read-out: efficacy) was 74.9%. For the same molecule, the “response to agonist, X4:ramp3.I:0.25” value ([2]; Figure 4c-f, agonist 100µM, X4:ramp3 1:0.25, MRGPRX4 = 100) was 83.1455 and 78.9266, the “response to agonist, X4:ramp3.I:0.5” value ([2]; Figure 4c-f, agonist 100µM, X4:ramp3 1:0.5, MRGPRX4 = 100) was 72.4625 and 76.3406 and the “response to agonist, X4:ramp3.I:1” value ([2]; Figure 4c-f, agonist 100µM, X4:ramp3 1:1, MRGPRX4 = 100) was 72.2618 and 56.5732. The “IP1 Basal” value [2, 3] was 26.80, the IP1 span (top minus basal of the concentration-response fit) [2, 3] was 84.2% and the Emax ([2]; MRGPRX4 + RAMP3 0.25 pg (Fig. S3), normalized per agonist, read-out: IP1 Emax) was 111%. The “IP1 Basal” value [2, 4] was 21.60, the IP1 span (top minus basal of the concentration-response fit) [2, 4] was 78.8% and the Emax ([2]; MRGPRX4 + RAMP3 0.5 pg (Fig. S3), normalized per agonist, read-out: IP1 Emax) was 100%. For the same molecule, the “IP1 Basal” value [2, 5] was 23.28, the IP1 span (top minus basal of the concentration-response fit) [2, 5] was 92.1% and the Emax ([2]; MRGPRX4 + RAMP3 1 pg (Fig. S3), normalized per agonist, read-out: IP1 Emax) was 115%. The “IP1 Basal” value ([2]; MRGPRX4 + RAMP3 2 pg (Fig. S3), normalized per agonist) was 14.52.
